Test results taken from patent publication US9504729B2, “Antiangiogenic small molecules and methods of use” (The United States of America, as represented by the …, priority 2009, dated 2016).

System: angiogenesis genes in dermal microvascular endothelial cells
Experiment: Real time RT-PCR of angiogenesis gene expression during endothelial tube formation
Format: cell-based
Details: 1 μM SM, 24 hours
Experimental: For gene expression studies, three independent experiments were run for each SM tested. 90.000 cells/well (6 wells/treatment) of dermal microvascular endothelial cells (Lonza, Walkersville, Md.) were seeded on polymerized GELTREX™ gel matrix (Invitrogen, Carlsbad, Calif.) in 24 well plates. Wells were immediately treated with the same volume of 1 μM SM or PBS. After 24 hours incubation at 37° C. and 5% CO2, cells were extracted using Cell Recovery Solution (BD Biosciences, San Jose, Calif., Cat. #354253). Total RNA was extracted with the RNeasy Mini Kit (Qiagen, Valencia, Calif., Cat. #74104), and retrotranscribed using […]® First-Strand reverse transcriptase (Invitrogen, Carlsbad, Calif., Cat. #11904-018). The real time PCR reactions were performed in an Opticon 2 cycler (MJ Research, Waltham, Mass.). Amplification was performed in a final volume of 25 μl, containing 2 μl cDNA (1:10 dilution from the reversed transcribed reaction) and 2 μl of primer mixture (10 μM each of forward and reverse primers). Samples were amplified as follows: after initial denaturation at 95 C for 2 minutes, reactions were run for 46 cycles at 95° C. for 30 seconds, 60° C. for 30 seconds, and 72° C. for 45 seconds. Fluorescence was measured in every cycle and a melting curve was run after the PCR by increasing temperature from 50 to 96° C. (in 0.5° C. increments). A defined single peak was obtained for all amplicons, thus confirming the specificity of the amplification.
The genes that were monitored were selected based on their relevance to the angiogenesis process. All experiments were done in triplicate. The results are shown in the volcano plots of FIG. 17. Log 2 fold-change is presented in the X-axis and log 10 P value in the Y-axis.

O=C1C(=Cc2ccccc2)C(NC2CCCCC2)c2ccccc21 (centres unmarked) [compound 150117]
Log2 fold-change of gene expression: 1839: 0.9 | Log2 fold-change of gene expression: 4247: −0.1 | Log2 fold-change of gene expression: 5569: −0.1 | Log2 fold-change of gene expression: 8131: −0.5 | Log2 fold-change of gene expression: 9569: −4.2 | Log2 fold-change of gene expression: 10988: 0.8 | Log2 fold-change of gene expression: 23001: −1.0 | Log2 fold-change of gene expression: 55332: −1.7 | Log2 fold-change of gene expression: 57722: −0.9 | Log2 fold-change of gene expression: 58488: 0.3 | Log2 fold-change of gene expression: 90780: −1.4 | Log2 fold-change of gene expression: 134265: −1.0 | Log2 fold-change of gene expression: AKT1: 1.6 | Log2 fold-change of gene expression: ANGPT1: 1.7 | Log2 fold-change of gene expression: ANGPT2: −1.2 | Log2 fold-change of gene expression: ANGPTL3: 1.8 | Log2 fold-change of gene expression: ANGPTL4: −4.0 | Log2 fold-change of gene expression: ANPEP: −1.7 | Log2 fold-change of gene expression: ANTXR1: −4.2 | Log2 fold-change of gene expression: APOE: −1.0 | Log2 fold-change of gene expression: ARHGEF1: −2.0 | Log2 fold-change of gene expression: Acvrl1: −1.2 | Log2 fold-change of gene expression: Adcy4: −0.5 | Log2 fold-change of gene expression: BAL1: 0.8 | Log2 fold-change of gene expression: BMP1: −0.4 | Log2 fold-change of gene expression: C1orf54: −1.3 | Log2 fold-change of gene expression: CALD1: 1.1 | Log2 fold-change of gene expression: CCL2: 0.9 | Log2 fold-change of gene expression: CCL11: 0.7 | Log2 fold-change of gene expression: CD248: −0.4 | Log2 fold-change of gene expression: CDH5: −1.6 | Log2 fold-change of gene expression: CENTD3: −0.2 | Log2 fold-change of gene expression: CLIC1: 0.0 | Log2 fold-change of gene expression: COL4A3: 2.4 | Log2 fold-change of gene expression: COL18A1: 0.8 | Log2 fold-change of gene expression: COMT: −1.0 | Log2 fold-change of gene expression: CST4: −0.1 | Log2 fold-change of gene expression: CTTNBP2NL: −2.3 | Log2 fold-change of gene expression: CXCL3: 0.8 | Log2 fold-change of gene expression: CXCL5: −3.5 | Log2 fold-change of gene expression: CXCL6: 1.2 | Log2 fold-change of gene expression: CXCL9: 1.2 | Log2 fold-change of gene expression: CXCL10: −1.7 | Log2 fold-change of gene expression: Calcr1: −5.4 | Log2 fold-change of gene expression: Caskin2: −2.7 | Log2 fold-change of gene expression: Ccbp2: 0.4 | Log2 fold-change of gene expression: Cldn5: 0.1 | Log2 fold-change of gene expression: DGKG: 3.4 | Log2 fold-change of gene expression: DKK3: −3.3 | Log2 fold-change of gene expression: DLL4: 5.5 | Log2 fold-change of gene expression: DUT: −0.2 | Log2 fold-change of gene expression: EFNA1: 0.4 | Log2 fold-change of gene expression: EFNA3: −1.8 | Log2 fold-change of gene expression: EFNB2: 0.4 | Log2 fold-change of gene expression: EGF: −2.3 | Log2 fold-change of gene expression: ENG: −0.1 | Log2 fold-change of gene expression: EPHB4: −1.2 | Log2 fold-change of gene expression: EREG: −2.4 | Log2 fold-change of gene expression: ESAM1: −2.6 | Log2 fold-change of gene expression: EXTL3: 0.0 | Log2 fold-change of gene expression: Egf17: −3.3 | Log2 fold-change of gene expression: Ehd4: −0.6 | Log2 fold-change of gene expression: Entpd1: −8.9 | Log2 fold-change of gene expression: Epas1: 0.4 | Log2 fold-change of gene expression: EphB1: 0.7 | Log2 fold-change of gene expression: Erg: −3.2 | Log2 fold-change of gene expression: FGF1: −3.8 | Log2 fold-change of gene expression: FGF2: 0.0 | Log2 fold-change of gene expression: FGFR3: 1.0 | Log2 fold-change of gene expression: FIGF: 2.4 | Log2 fold-change of gene expression: FLT1: −0.5 | Log2 fold-change of gene expression: Fgd5: −1.2 | Log2 fold-change of gene expression: GPCR124: −2.9 | Log2 fold-change of gene expression: GRRP1: 0.0 | Log2 fold-change of gene expression: Grp116: −3.1 | Log2 fold-change of gene expression: HAND2: 1.5 | Log2 fold-change of gene expression: HGF: 1.5 | Log2 fold-change of gene expression: HIF1A: −1.8 | Log2 fold-change of gene expression: HPSE: −0.2 | Log2 fold-change of gene expression: Hspa12b: −3.5 | Log2 fold-change of gene expression: ID1: 0.3 | Log2 fold-change of gene expression: ID3: 0.5 | Log2 fold-change of gene expression: IFNA1: 1.9 | Log2 fold-change of gene expression: IFNB1: 2.1 | Log2 fold-change of gene expression: IFNG: −1.9 | Log2 fold-change of gene expression: IGF1: −0.2 | Log2 fold-change of gene expression: IL1B: 9.5 | Log2 fold-change of gene expression: IL6: 2.2 | Log2 fold-change of gene expression: IL8: 6.0 | Log2 fold-change of gene expression: ITGAV: −1.8 | Log2 fold-change of gene expression: ITGB3: −1.4 | Log2 fold-change of gene expression: Icam1: 0.6 | Log2 fold-change of gene expression: Icam2: 0.0 | Log2 fold-change of gene expression: JAG1: 0.3 | Log2 fold-change of gene expression: KDR: −2.1 | Log2 fold-change of gene expression: Kifc1: −0.1 | Log2 fold-change of gene expression: LAMAS5: −2.2 | Log2 fold-change of gene expression: LECT1: −0.2 | Log2 fold-change of gene expression: LEP: −0.2 | Log2 fold-change of gene expression: Lasts2: 0.3 | Log2 fold-change of gene expression: Lrrk1: −1.8 | Log2 fold-change of gene expression: MDK: −1.5 | Log2 fold-change of gene expression: MMP2: −0.6 | Log2 fold-change of gene expression: MMP9: −0.3 | Log2 fold-change of gene expression: MMP11: −0.2 | Log2 fold-change of gene expression: MRC2: −0.7 | Log2 fold-change of gene expression: Mmm2: −3.4 | Log2 fold-change of gene expression: Myo1b: −2.7 | Log2 fold-change of gene expression: NID1: −5.2 | Log2 fold-change of gene expression: NM023516: 0.6 | Log2 fold-change of gene expression: NRP1: −2.0 | Log2 fold-change of gene expression: NRP2: −3.2 | Log2 fold-change of gene expression: Notch4: −0.7 | Log2 fold-change of gene expression: Npr3: 0.5 | Log2 fold-change of gene expression: PALD: −1.7 | Log2 fold-change of gene expression: PDCD2: −0.9 | Log2 fold-change of gene expression: PDGFA: −0.9 | Log2 fold-change of gene expression: PECAM1: −2.5 | Log2 fold-change of gene expression: PGF: −1.6 | Log2 fold-change of gene expression: PLAU: 0.0 | Log2 fold-change of gene expression: PLG: −3.9 | Log2 fold-change of gene expression: PNMT: −0.4 | Log2 fold-change of gene expression: PROK2: 0.7 | Log2 fold-change of gene expression: PTGS1: 0.3 | Log2 fold-change of gene expression: PTPRCAP: 0.2 | Log2 fold-change of gene expression: Pltp: 0.9 | Log2 fold-change of gene expression: Ptprb: −2.6 | Log2 fold-change of gene expression: Ptprm: −1.4 | Log2 fold-change of gene expression: RAMP2: −4.4 | Log2 fold-change of gene expression: RASD2: −0.1 | Log2 fold-change of gene expression: Rasip1: −1.7 | Log2 fold-change of gene expression: S1PR1: −1.9 | Log2 fold-change of gene expression: SERPINF1: 1.5 | Log2 fold-change of gene expression: SPHK1: 1.2 | Log2 fold-change of gene expression: STAB1: −0.9 | Log2 fold-change of gene expression: Sdc4: 0.2 | Log2 fold-change of gene expression: Sdpr: 0.0 | Log2 fold-change of gene expression: Slc43a3: 0.0 | Log2 fold-change of gene expression: Slco2a1: −2.9 | Log2 fold-change of gene expression: TEK: 0.7 | Log2 fold-change of gene expression: TGFA: 5.3 | Log2 fold-change of gene expression: TGFB1: −1.3 | Log2 fold-change of gene expression: TGFB2: 1.6 | Log2 fold-change of gene expression: TGFBR1: 1.2 | Log2 fold-change of gene expression: THBS1: −0.6 | Log2 fold-change of gene expression: THBS2: 0.9 | Log2 fold-change of gene expression: THY1: −12.7 | Log2 fold-change of gene expression: TIMP1: −0.7 | Log2 fold-change of gene expression: TIMP2: −0.8 | Log2 fold-change of gene expression: TIMP3: −2.7 | Log2 fold-change of gene expression: TNF: 2.4 | Log2 fold-change of gene expression: TNS1: −0.9 | Log2 fold-change of gene expression: TNS3: 0.6 | Log2 fold-change of gene expression: TRA2B: −0.2 | Log2 fold-change of gene expression: TYMP: −1.1 | Log2 fold-change of gene expression: VEGFA: −0.3 | Log2 fold-change of gene expression: VEGFC: 2.0 | Log2 fold-change of gene expression: VGLL4: −3.5 | Log2 fold-change of gene expression: Vwf: −3.7 | Log2 fold-change of gene expression: copa: 0.0 | Log2 fold-change of gene expression: itbp4: −2.5 | Log2 fold-change of gene expression: ralb: −0.7 | Log2 fold-change of gene expression: stard9: 0.1 | Log2 fold-change of gene expression: B2M (1st listing (r49)): 2.8 | Log2 fold-change of gene expression: HPRT1 (1st listing (r50)): −0.4 | Log2 fold-change of gene expression: RPL13A (1st listing (r51)): −0.8 | Log2 fold-change of gene expression: GADPH (1st listing (r52)): −1.3 | Log2 fold-change of gene expression: ACTB (1st listing (r53)): −0.9 | Log2 fold-change of gene expression: PLXDC1 (1st listing (r74)): −3.2 | Log2 fold-change of gene expression: TNFAIP2 (1st listing (r91)): −0.6 | Log2 fold-change of gene expression: Robo4 (1st listing (r95)): −0.2 | Log2 fold-change of gene expression: 151516 (1st listing (r134)): 0.0 | Log2 fold-change of gene expression: TNFAIP2 (2nd listing (r92)): 2.7 | Log2 fold-change of gene expression: B2M (2nd listing (r97)): −1.2 | Log2 fold-change of gene expression: HPRT1 (2nd listing (r98)): 0.6 | Log2 fold-change of gene expression: RPL13A (2nd listing (r99)): 0.1 | Log2 fold-change of gene expression: GADPH (2nd listing (r100)): −0.1 | Log2 fold-change of gene expression: ACTB (2nd listing (r101)): −0.6 | Log2 fold-change of gene expression: PLXDC1 (2nd listing (r104)): −0.6 | Log2 fold-change of gene expression: 151516 (2nd listing (r139)): 0.0 | Log2 fold-change of gene expression: Robo4 (2nd listing (r188)): −0.3 | Log2 fold-change of gene expression: B2M (3rd listing (r145)): −0.7 | Log2 fold-change of gene expression: HPRT1 (3rd listing (r146)): 1.1 | Log2 fold-change of gene expression: RPL13A (3rd listing (r147)): 0.6 | Log2 fold-change of gene expression: GADPH (3rd listing (r148)): −0.5 | Log2 fold-change of gene expression: ACTB (3rd listing (r149)): −0.5 | Log2 fold-change of gene expression: B2M (4th listing (r193)): −0.8 | Log2 fold-change of gene expression: HPRT1 (4th listing (r194)): 0.4 | Log2 fold-change of gene expression: RPL13A (4th listing (r195)): 0.2 | Log2 fold-change of gene expression: GADPH (4th listing (r196)): −0.5 | Log2 fold-change of gene expression: ACTB (4th listing (r197)): −0.2
